In PubChem BioAssay (NCI):
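Dose response: 5 concentrations. Exposure: 48 h. Format: 96-well plates. Endpoint: linear interpolation; highest concentration if not reached. TGI is the concentration that stops growth completely.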

How the values were obtained:
Assay in all cases: NCI-60 cell line screen, 48 h
[1] = test system: SNB-75 CNS
[2] = test system: ACHN renal
[3] = test system: SNB-19 CNS
[4] = test system: MALME-3M melanoma
[5] = test system: MOLT-4 leukemia
[6] = test system: HOP-92 NSCLC
[7] = test system: HS 578T breast
[8] = test system: CAKI-1 renal
[9] = test system: A498 renal
[10] = test system: NCI-H522 lung
[11] = test system: HCC-2998 colon
[12] = test system: A549 NSCLC
[13] = test system: HL-60(TB) leukemia
[14] = test system: OVCAR-5 ovarian
[15] = test system: MDA-MB-435
[16] = test system: SK-MEL-2 melanoma
[17] = test system: BT-549 breast
[18] = test system: HCT-15 colon
[19] = test system: SK-MEL-5 melanoma
[20] = test system: TK-10 renal
[21] = test system: SK-OV-3 ovarian
[22] = test system: EKVX NSCLC
[23] = test system: K-562 leukemia
[24] = test system: OVCAR-8 ovarian
[25] = test system: 786-0 renal
[26] = test system: SF-539 CNS
[27] = test system: UACC-257 melanoma
[28] = test system: COLO 205 colon
[29] = test system: SF-295 CNS
[30] = test system: MDA-N
[31] = test system: CCRF-CEM leukemia
[32] = test system: SF-268 CNS
[33] = test system: HOP-62 NSCLC
[34] = test system: RPMI-8226 leukemia
[35] = test system: M14 melanoma
[36] = test system: MDA-MB-231 breast
[37] = test system: KM12 colon
[38] = test system: NCI/ADR-RES ovarian
[39] = test system: NCI-H460 lung
[40] = test system: HT29 colon
[41] = test system: IGROV1 ovarian
[42] = test system: NCI-H226 lung
[43] = test system: RXF 393 renal
[44] = test system: HCT-116 colon
[45] = test system: SW-620 colon
[46] = test system: SN12C renal
[47] = test system: MCF7 breast
[48] = test system: LOX IMVI melanoma
[49] = test system: PC-3 prostate
[50] = test system: U251 CNS
[51] = test system: UACC-62 melanoma
[52] = test system: OVCAR-4 ovarian
[53] = test system: T-47D breast
[54] = test system: SR leukemia
[55] = test system: NCI-H23 lung
[56] = test system: UO-31 renal
[57] = test system: DU-145 prostate
[58] = test system: OVCAR-3 ovarian

Measured: TGI

CCN(CC)CCn1c(=O)c2c(C)c3oc4ccccc4oc3c(C)c2c1=O
> 100 µM: [1] | [2] | [3] | [4] | [5] | [6] | [7] | [8] | [9] | [10] | [11] | [12] | [13] | [14] | [15] | [16] | [17] | [18] | [19] | [20] | [21] | [22] | [23] | [24] | [25] | [26] | [27] | [28] | [29] | [30] | [31] | [32] | [33] | [34] | [35] | [36] | [37] | [38] | [39] | [40] | [41] | [42] | [43] | [44] | [45] | [46] | [47] | [48] | [49] | [50] | [51] | [52]

CN(O)C(=O)CCCC(=O)NCC(C)(C)CNC(=O)CCCC(=O)N(C)O
> 100 µM: [1] | [2] | [3] | [4] | [5] | [6] | [7] | [8] | [9] | [11] | [12] | [13] | [14] | [15] | [16] | [18] | [19] | [20] | [21] | [22] | [23] | [24] | [26] | [27] | [28] | [29] | [30] | [31] | [32] | [53] | [54] | [55] | [33] | [34] | [35] | [36] | [37] | [38] | [56] | [39] | [40] | [41] | [42] | [43] | [45] | [47] | [48] | [49] | [50] | [57] | [51] | [58] | [52]
